Patent US10023582B2, “6-aryl amino pyridone formamide compound crystal and preparation method therefor” (Chia Tai Tianqing Pharmaceutical Group Co., Ltd., priority 2014, dated 2018)

Assay: Stability test (influencing factors: high temperature/humidity and strong light irradiation), total impurities
Assay type: physicochemical
Protocol: A suitable amount of the crystal of the compound of formula (I) prepared in Example 4 was accurately weighed, and methanol was then added thereto to dissolve the crystal. It was diluted quantitatively to obtain a solution containing about 50 μg of the compound per 1 ml of the solution. 10 μl of the solution was accurately measured and injected into the liquid chromatograph, and the chromatogram was recorded. In addition, a suitable amount of the compound of formula (I) was weighed as a control, and measured by the same method as described in the above. The purity was calculated through external standard method based on peak areas.
Referring to the test method of influencing factors for raw materials described in the Chinese Pharmacopoeia, 2010 edition, Part II, Appendix XIX C, a high-temperature experiment (40° C.±2° C. and a relative humidity of 75%±5%) and strong light irradiation experiment (4500l×±500l×) were conducted on the crystal of the compound of formula (I) prepared in Example 4 for 10 days, respectively. Samples were taken on day 0 and day 10 to measure a total amount of impurities and determine the stability.

Total amount of impurities (%) (At 40° C., 10 days (40° C.±2° C., relative humidity 75%±5%)): 0.60%
Total amount of impurities (%) (Day 0): 0.57%
Total amount of impurities (%) (Irradiation for 10 days (strong light, 4500l×±500l×)): 0.68%
SMILES: Cn1c(Nc2ccc(I)cc2Cl)c(C(=O)NOCCO)c2occc2c1=O [6-(2-chloro-4-iodophenylamino)-N-(2-hydroxylethyoxyl)-5-methyl-4-oxo-4,5-dihydrofuro[3,2-c]pyridine-7-carboxamide]
